Columns and labels:
patients = conditions: administered doses with cisplatin infusions; cited from earlier work
[1] = Solubility study of calcitriol in each formulation (light microscope); format: physicochemical; conditions: each formulation of Table 3; heated to 50° C., cooled to room temperature; highest concentration tested
Description: To further assess the formulations of calcitriol, a solubility study was conducted to evaluate the amount of calcitriol soluble in each formulation. Calcitriol concentrations from 0.1 to 0.6 μg calcitriol/mg formulation were prepared by heating the formulations to 50° C. followed by addition of the appropriate mass of calcitriol. The formulations were then allowed to cool to room temperature and the presence of undissolved calcitriol was determined by a light microscope with and without polarizing light. For each formulation, calcitriol was soluble at the highest concentration tested, 0.6 μg calcitriol/mg formulation.

[2] = system: patients with androgen independent prostate cancer; conditions: human, in vivo
Description: Two hundred fifty patients with androgen independent prostate cancer were enrolled in a randomized placebo controlled trial at 48 centers in the United States and Canada.
The same Taxotere® dose of 36 mg/m^2 body surface area was administered to the patients receiving Taxotere® and placebo or Taxotere® in combination with calcitriol.
Hospitalization for dehydration was more common in those patients receiving Taxotere® and placebo.

SMILES	Emesis, percent of patients (patients)	Hypotension, percent of patients (patients)	Calcitriol soluble in formulation [1]	GI disorders versus Taxotere and placebo [2]
NCCCNCCSP(=O)(O)O [WR 2721, S-2-(3-aminopropylamino)ethylphosphorothioic acid]	48 % of patients	7 % of patients	–	–
C=C1/C(=C\C=C2/CCC[C@]3(C)[C@@H]([C@H](C)CCCC(C)(C)O)CC[C@@H]23)C[C@@H](O)C[C@@H]1O [Calcitriol, 1α,25-hydroxyvitamin D3]	–	–	≥ 0.6 μg calcitriol/mg formulation	fewer GI disorders
